Reference: US12686657B2, “Anti-inflammatory carboxamide derivatives” (BIOMEDCODE HELLAS SA, priority 2021, dated 2026)

Columns and labels:
hTNFtg SFs = test: Legendplex pro-inflammatory chemokine panel on hTNFTg synovial fibroblasts; format: cell-based, mice
Protocol: (§1) SFs were isolated as previously described by Armaka et al., 2009, from the ankle joints of hTNFtg or CBA/C57BL6 wild type (wt) littermates. Briefly, ankle joints were digested with Collagenase IV (Sigma Aldrich, C5138) for 45 minutes at a 37° C. shaking waterbath and after 5 days in culture at 37° C. and 5% CO2, a depletion of CD45+ lineage cells was performed using a Biotin anti-mouse CD45 Antibody (Biolegend, 103104) and Dynabeads™ Biotin Binder (ThermoFisher 11047), according to the manufacturer's protocol. After 10 days in culture, SFs were seeded overnight (O/N) at a concentration of 2×10^4 cells/well in a 96 well plate in 1×DMEM, supplemented with 100 U/ml Penicillin Streptomycin (P/S) and 10% Fetal Bovine Serum (FBS). The next day the cells were synchronized by starvation that included their O/N plating in low serum medium (0.5% FBS). Following the O/N starvation, the hTNFg and the WT SFs were treated with different concentrations of the experimental compounds. The SFs were at the same time activated with 10 ng/ml hTNF (Peprotech, 300-01A). 48 h following the treatment the cell culture supernatants were collected and analyzed by ELISA (R&S Systems, Duoset, DY478 and DY760) according to the manufacturer's protocol, for the detection of CCL5/Rantes and CCL20/Mip3, two known inflammatory chemokines. The IC50 values were determined as the concentration of the compounds required to reduce the levels of secreted CCL5 and CCL20 by 50%.
(§2) The supernatants of the SFs were also analyzed using the Mouse pro-inflammatory chemokine panel from Legendplex™ (Biolegend, 740007), according to manufacturer's instructions, for the simultaneous detection of 13 Mouse chemokines.
(§3) The anti-inflammatory potential of the test compounds 51, 52, 53, E and F on SFs was also assessed using the Mouse pro-inflammatory chemokine panel from Legendplex that allows the simultaneous detection of 13 Mouse chemokines. The effect of compound 51 on SFs was assessed at a dose of 25 μM, while the effect of the test compounds 52, 53, E and F was assessed at a dose of 10 μM. Numbers represent percentages of the chemokine levels secreted from the treated SFs compared to 100% levels of the chemokines detected in the untreated cells (i.e. either hTNFTg SFs or hTNF-activated wt SFs).
(§4) Table 9 summarizes the effect of the test compounds 51, 52 and 53, E and F on the inflammatory chemokines secreted from activated SFs. WT SFs were stimulated with 10 ng/ml hTNF.

hTNF-activated wt SFs = test: Legendplex pro-inflammatory chemokine panel on hTNF-activated wt synovial fibroblasts; format: cell-based, mice; settings: 10 ng/ml hTNF
Protocol: as §1, §2, §3, §4

C57BL/6J mice = test: In vivo LPS acute systemic inflammation model, serum cytokines and chemokines (Legendplex); set-up: key to IL-1β in sera, Average / IL-17A in sera, Average / IL-27 in sera, Average / GM-CSF in sera, Average / KC in sera, Average / MCP1 in sera, Average / IP-10 in sera, Average / MIP-1A in sera, Average / MIP-1B in sera, Average / MDC in sera, Average / IL-23 in sera, Average / TNF-α in sera, Average: serum concentration in pg/ml; IL12p70 in sera, Average / IFN-γ in sera, Average: unit: pg/ml; settings: 1 μg LPS i.p.
Protocol: In order to evaluate in vivo the anti-inflammatory effect of the test compounds a model of in vivo LPS acute systemic inflammation was used where C57BL/6J mice were challenged by administration of 1 μg LPS. Each one of the compounds 51 to 53 was administered to C57BL/6J mice per os in two doses of 50 mg. Two hours after administering the first dose, the animals received the second p.o. dose of each compound and were also challenged with 1 μg LPS intraperitoneally. Sera samples were collected 1.5 hrs post induction in order to measure the levels of 13 cytokines using the pro-inflammatory panel from Legendplex (cat no 740446) and following manufacturer's instructions. Four biological replicates were performed and the average and SEM were calculated with the obtained results.
The same protocol was followed but administering compound 53 at 100 mg/kg. In this case both the levels of the 13 cytokines but also of 13 chemokines were measured, using the pro-inflammatory panel from Legendplex (cat no 740007).
The anti-inflammatory effect of the test compounds 51, 52 and 53 was assessed in vivo in the LPS model of acute inflammation. Administration of the endotoxin Lipopolysaccharide (LPS) to mice induces acute inflammatory responses similar to the inflammatory response that occurs during the early stages of septic shock. Shortly after administration of the endotoxin, cytokines and chemokines are released. This model is fast, cost-effective and widely used for screening of anti-inflammatory properties of test items aimed for treatment of a number of inflammatory and autoimmune conditions (Seemann et al., 2017; Stortz et al., 2017).
Sera samples from the treated mice with the 50 mg/Kg doses of the test compounds 51-53 were evaluated using the mouse pro-inflammatory panel of Legendplex and the data acquired are presented as pg/ml in Table 11. Vehicle, 52 and 53 were tested in quadruplicates (vehicle_1-4), 51 in triplicate (51_1-3).
Sera samples from the treated mice with test compounds 53 with 100 mg/Kg were also evaluated using the mouse pro-inflammatory cytokine and chemokine panel of Legendplex and the effect of compound 53 at a higher dose (100 mg/kg) in inhibiting inflammatory cytokines and chemokines is presented in the Table 12 below.

[1] = 50 mg/Kg per os, two doses, sera 1.5 hrs post induction

| Compound | EOTAXIN hTNFTg, percentage of level in untreated cells (hTNFtg SFs; compound 10 μM) | KC hTNFTg, percentage of level in untreated cells (hTNFtg SFs; compound 10 μM) | LIX hTNFTg, percentage of level in untreated cells (hTNFtg SFs; compound 10 μM) | MCP1 hTNFTg, percentage of level in untreated cells (hTNFtg SFs; compound 10 μM) | MIP1β hTNFTg, percentage of level in untreated cells (hTNFtg SFs; compound 10 μM) | EOTAXIN WT, percentage of level in untreated cells (hTNF-activated wt SFs; compound 10 μM) | KC WT, percentage of level in untreated cells (hTNF-activated wt SFs; compound 10 μM) | LIX WT, percentage of level in untreated cells (hTNF-activated wt SFs; compound 10 μM) | MCP1 WT, percentage of level in untreated cells (hTNF-activated wt SFs; compound 10 μM) | IL-1α in sera, Average (C57BL/6J mice; [1]) | IL-1β in sera, Average (C57BL/6J mice; [1]) | IL-6 in sera, Average (C57BL/6J mice; [1]) | IL-10 in sera, Average (C57BL/6J mice; [1]) | IL-17A in sera, Average (C57BL/6J mice; [1]) | MCP-1 in sera, Average (C57BL/6J mice; [1]) | further results |
| --- | --- | --- | --- | --- | --- | --- | --- | --- | --- | --- | --- | --- | --- | --- | --- | --- |
| COc1cc(N)c(Cl)cc1C(=O)NCC1(Nc2cccc(OC(F)(F)F)c2)CCCCCC1 [F, 4-amino-5-chloro-2-methoxy-N-((1-((3-(trifluoromethoxy)phenyl)amino)cycloheptyl)methyl)benzamide] | 0% | 35% | 1% | 13.5% | 12.5% |  |  |  |  |  |  |  |  |  |  |  |
| COc1cc(N)c(Cl)cc1C(=O)NCC1(Nc2ccc(F)cc2Cl)CCCCCC1 [E, 4-amino-5-chloro-N-((1-((2-chloro-4-fluorophenyl)amino)cycloheptyl)methyl)-2-methoxybenzamide] | 2.5% | 32% | 19.5% | 25.5% | 24% |  |  |  |  |  |  |  |  |  |  |  |
| COc1cc(N)c(Cl)cc1C(=O)NCC1(c2ccc(Cl)cc2)CCCCCC1 [Compound 52, 4-amino-5-chloro-N-((1-(4-chlorophenyl)cycloheptyl)methyl)-2-methoxybenzamide] | 6% | 49% | 48% | 55% |  | 26% | 34% | 23% | 40% | 43.1 pg/mL | 118.5 pg/mL | 3988.8 pg/mL | 1692.2 pg/mL | 27.7 pg/mL | 4916.5 pg/mL |  |
| COc1cc(N)c(Cl)cc1C(=O)NCC1(c2ccc(Cl)cc2)CCCCC1 [Compound 51, 4-amino-5-chloro-N-((1-(4-chlorophenyl)cyclohexyl)methyl)-2-methoxybenzamide] |  |  |  |  |  |  |  |  |  | 27.4 pg/mL | 87.0 pg/mL | 4702.5 pg/mL | 1774.5 pg/mL | 43.8 pg/mL | 4689.1 pg/mL | EOTAXIN hTNFTg, percentage of level in untreated cells (hTNFtg SFs; compound 25 μM): 24%; KC hTNFTg, percentage of level in untreated cells (hTNFtg SFs; compound 25 μM): 80%; LIX hTNFTg, percentage of level in untreated cells (hTNFtg SFs; compound 25 μM): 22%; MCP1 hTNFTg, percentage of level in untreated cells (hTNFtg SFs; compound 25 μM): 89%; EOTAXIN WT, percentage of level in untreated cells (hTNF-activated wt SFs; compound 25 μM): 7%; KC WT, percentage of level in untreated cells (hTNF-activated wt SFs; compound 25 μM): 41%; LIX WT, percentage of level in untreated cells (hTNF-activated wt SFs; compound 25 μM): 3%; MCP1 WT, percentage of level in untreated cells (hTNF-activated wt SFs; compound 25 μM): 59% |
| COc1cc(N)c(Cl)cc1C(=O)NCC1(Nc2ccc(Cl)cc2)CCCCCC1 [Compound 53, 4-amino-5-chloro-N-((1-((4-chlorophenyl)amino)cycloheptyl)methyl)-2-methoxybenzamide] | 9% | 49% | 40% | 49.5% | 33% | 59% | 68% | 24% | 57% | 67.3 pg/mL | 113.1 pg/mL | 5145 pg/mL | 2616.1 pg/mL | 55.1 pg/mL | 5149 pg/mL | GM-CSF in sera, Average (C57BL/6J mice; 100 mg/kg p.o.): 9.8; IFN-γ in sera, Average (C57BL/6J mice; 100 mg/kg p.o.): 6.7; IL12p70 in sera, Average (C57BL/6J mice; 100 mg/kg p.o.): 5.7; IL-1β in sera, Average (C57BL/6J mice; 100 mg/kg p.o.): 12.4; IL-17A in sera, Average (C57BL/6J mice; 100 mg/kg p.o.): 3.7; IL-23 in sera, Average (C57BL/6J mice; 100 mg/kg p.o.): 16.6; IL-27 in sera, Average (C57BL/6J mice; 100 mg/kg p.o.): 16.1; IP-10 in sera, Average (C57BL/6J mice; 100 mg/kg p.o.): 45.2; KC in sera, Average (C57BL/6J mice; 100 mg/kg p.o.): 4227.5; MCP1 in sera, Average (C57BL/6J mice; 100 mg/kg p.o.): 1246.2; MDC in sera, Average (C57BL/6J mice; 100 mg/kg p.o.): 56.6; MIP-1A in sera, Average (C57BL/6J mice; 100 mg/kg p.o.): 244.3; MIP-1B in sera, Average (C57BL/6J mice; 100 mg/kg p.o.): 1301.1; TNF-α in sera, Average (C57BL/6J mice; 100 mg/kg p.o.): 136.8 |
